Laboratory results taken from ChEMBL document CHEMBL1201862, “PubChem BioAssay data set” (2004).
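A five-concentration, 48-hour dose response in 96-well plates underlies each endpoint, interpolated linearly between surrounding concentrations. GI50 marks 50% less growth.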 Activity calls are given as the source filed them. No stated cut-off is given here; in the data, active = GI50 up to about 1.1 µM and inactive = higher.

Legend:
Test in all cases: DTP human tumour cell line panel, 48 h
HL-60 = tested on: HL-60
OVCAR-5 = tested on: OVCAR-5
SF-295 = tested on: SF-295
RPMI-8226 = tested on: RPMI-8226
SW-620 = tested on: SW-620
NCI-H23 = tested on: NCI-H23
COLO 205 = tested on: COLO 205
HOP-62 = tested on: HOP-62
SK-MEL-2 = tested on: SK-MEL-2
A549 = tested on: A549
HCT-15 = tested on: HCT-15
IGROV-1 = tested on: IGROV-1
UACC-257 = tested on: UACC-257
HCT-116 = tested on: HCT-116
OVCAR-3 = tested on: OVCAR-3
OVCAR-8 = tested on: OVCAR-8
Malme-3M = tested on: Malme-3M
MCF7 = tested on: MCF7
TK-10 = tested on: TK-10
ACHN = tested on: ACHN

Structure (SMILES) | GI50 (HL-60) | GI50 (OVCAR-5) | GI50 (SF-295) | GI50 (RPMI-8226) | GI50 (SW-620) | GI50 (NCI-H23) | GI50 (COLO 205) | GI50 (HOP-62) | GI50 (SK-MEL-2) | GI50 (A549) | GI50 (HCT-15) [µM] | GI50 (IGROV-1) | GI50 (UACC-257) | GI50 (HCT-116) | GI50 (OVCAR-3) | GI50 (OVCAR-8) | GI50 (Malme-3M) | GI50 (MCF7) | GI50 (TK-10) | GI50 (ACHN)
CCCC[S+]([O-])CC(CO)NC(=O)/C=C/c1c(C)[nH]c(=O)[nH]c1=O (stereo not given) | 7.23 µM (inactive) | 14.7 µM (inactive) | 8.38 µM (inactive) | 9.02 µM (inactive) | 16.5 µM (inactive) | 7.98 µM (inactive) | 16.7 µM (inactive) | 8.93 µM (inactive) | 6.34 µM (inactive) | 10.8 µM (inactive) | 31.8 | 7.29 µM (inactive) | 11 µM (inactive) | 10 µM (inactive) | 5 µM (inactive) | 6.73 µM (inactive) | 3.14 µM (inactive) | 8.67 µM (inactive) | – | –
CC1(C)OCC(CO)(CO)CO1 | > 100 µM (inactive) | – | > 100 µM (inactive) | – | > 100 µM (inactive) | > 100 µM (inactive) | > 100 µM (inactive) | – | – | > 100 µM (inactive) | > 100 | – | > 100 µM (inactive) | > 100 µM (inactive) | > 100 µM (inactive) | > 100 µM (inactive) | – | > 100 µM (inactive) | > 100 µM (inactive) | > 100 µM (inactive)
COc1cc([N+](=O)[O-])ccc1N1C(=O)C2c3[nH]c4ccccc4c3C3CCC(C(C)(C)C)CC3C2C1=O (stereo not given) | > 100 µM (inactive) | 80.5 µM (inactive) | – | > 100 µM (inactive) | > 100 µM (inactive) | 31 µM (inactive) | > 100 µM (inactive) | 7.43 µM (inactive) | 94.8 µM (inactive) | > 100 µM (inactive) | > 100 | > 100 µM (inactive) | 76.4 µM (inactive) | 44.5 µM (inactive) | > 100 µM (inactive) | 29 µM (inactive) | > 100 µM (inactive) | > 100 µM (inactive) | > 100 µM (inactive) | > 100 µM (inactive)
CC1(C)N=C(/C(Cl)=[N+](/[O-])C(=O)c2ccc(Cl)cc2)C(C)(C)N1O | 18.5 µM (inactive) | 23.6 µM (inactive) | 56 µM (inactive) | 26.5 µM (inactive) | 20.3 µM (inactive) | 22.1 µM (inactive) | 17 µM (inactive) | 39 µM (inactive) | 52.7 µM (inactive) | > 100 µM (inactive) | 19.8 | 41 µM (inactive) | 18.2 µM (inactive) | 16.3 µM (inactive) | 17.5 µM (inactive) | 20.4 µM (inactive) | 17.7 µM (inactive) | 17.3 µM (inactive) | 19.8 µM (inactive) | 38.5 µM (inactive)
O=C(Nc1cccc([N+](=O)[O-])c1)C(=O)C(C(=O)c1ccccc1F)C1OC(=O)C2C=CC=CC21 (stereo not given) | 20 µM (inactive) | 81.7 µM (inactive) | 43.9 µM (inactive) | 23.8 µM (inactive) | 52.1 µM (inactive) | 25.1 µM (inactive) | 35.2 µM (inactive) | 50.9 µM (inactive) | 30.3 µM (inactive) | 37.5 µM (inactive) | 27.5 | 53.8 µM (inactive) | 82 µM (inactive) | 19.4 µM (inactive) | – | 30.3 µM (inactive) | – | – | > 100 µM (inactive) | 49.4 µM (inactive)
COc1cc(/N=N\c2cccc(S(=O)(=O)O)c2)ccc1/N=N\c1ccc(/C=C/c2ccc(-n3on3-c3ccc(/C=C/c4ccc(/N=N/c5ccc(/N=N\c6cccc(S(=O)(=O)O)c6)cc5OC)cc4S(=O)(=O)O)c(S(=O)(=O)O)c3)cc2S(=O)(=O)O)c(S(=O)(=O)O)c1 | > 80 µM (inactive) | > 100 µM (inactive) | > 100 µM (inactive) | > 100 µM (inactive) | > 100 µM (inactive) | > 100 µM (inactive) | > 100 µM (inactive) | > 100 µM (inactive) | > 100 µM (inactive) | > 100 µM (inactive) | > 100 | > 100 µM (inactive) | > 100 µM (inactive) | > 100 µM (inactive) | > 100 µM (inactive) | > 100 µM (inactive) | > 100 µM (inactive) | > 100 µM (inactive) | – | –
O=Nn1c2ccccc2c2cc([N+](=O)[O-])ccc21 | > 100 µM (inactive) | 16.5 µM (inactive) | 15.2 µM (inactive) | 13.3 µM (inactive) | 13.7 µM (inactive) | 17.3 µM (inactive) | 34.3 µM (inactive) | 12.3 µM (inactive) | 36.3 µM (inactive) | 19.9 µM (inactive) | 22.3 | 15.7 µM (inactive) | 22.9 µM (inactive) | 13.9 µM (inactive) | 17.9 µM (inactive) | 14.6 µM (inactive) | 12.9 µM (inactive) | 22.9 µM (inactive) | 15.4 µM (inactive) | 14.1 µM (inactive)
O=C(Nc1ccc(Cl)cc1)c1cc2cc(/N=N/c3ccccc3Cl)ccc2oc1=O | 2.14 µM (inactive) | 44.6 µM (inactive) | 28.7 µM (inactive) | 4.76 µM (inactive) | 18.1 µM (inactive) | 13.3 µM (inactive) | 34.1 µM (inactive) | 26.9 µM (inactive) | 18.1 µM (inactive) | 29.2 µM (inactive) | 2.74 | 19 µM (inactive) | 19.2 µM (inactive) | 11.2 µM (inactive) | 22.2 µM (inactive) | 13.4 µM (inactive) | 18.5 µM (inactive) | – | 33.3 µM (inactive) | 6.3 µM (inactive)
